Active and inactive are the calls of the source.
Key:
Assay type in all cases: functional, organism-based
Aedes aegypti [1] = assay: Larvicidal activity against Aedes aegypti Rockefeller strain L3 Larvae assessed as mortality at 90 ug/ml measured after 24 hrs; details: dose 90.0 µg/ml
Aedes aegypti [2] = assay: Larvicidal activity against Aedes aegypti Rockefeller strain L3 Larvae assessed as mortality at 90 ug/ml measured after 48 hrs; details: dose 90.0 µg/ml
Aedes aegypti [3] = assay: Larvicidal activity against Aedes aegypti Rockefeller strain L3 Larvae assessed as mortality at 90 ug/ml measured after 72 hrs; details: dose 90.0 µg/ml
Aedes aegypti [4] = assay: Larvicidal activity against Aedes aegypti Rockefeller strain L3 Larvae assessed as mortality at 150 ug/ml measured after 24 hrs; details: dose 150.0 µg/ml
Aedes aegypti [5] = assay: Larvicidal activity against Aedes aegypti Rockefeller strain L3 Larvae assessed as mortality at 150 ug/ml measured after 48 hrs; details: dose 150.0 µg/ml
Aedes aegypti [6] = assay: Larvicidal activity against Aedes aegypti Rockefeller strain L3 Larvae assessed as mortality at 150 ug/ml measured after 72 hrs; details: dose 150.0 µg/ml

Measured: Activity

O=C(/C=C/c1ccc(O)c(O)c1)O[C@@H]1C[C@](O)(C(=O)O)C[C@@H](OC(=O)/C=C/c2ccc(O)c(O)c2)[C@H]1O
inactive: all assays above

From ChEMBL document CHEMBL5252594
